Measurements from article PMC7806522, “Olfactory marker protein interacts with adenosine nucleotide derivatives” (Biochemistry and Biophysics Reports, 2021).
Each block holds one compound with its values, some of them ahead of it.

Experiments:
Type in all cases: biochemical
[1] = target: T1, Olfactory marker protein (OMP) (Mus musculus, UniProt Q64288); assay: BRET competition against […] 8NBD-cAMP (U-shaped, peak at […])
T1 construct: Rluc-OMP fusion (Rluc upstream of mouse OMP, NM_011010), from HEK293T lysate
T1 sequence (Q64288 2-163): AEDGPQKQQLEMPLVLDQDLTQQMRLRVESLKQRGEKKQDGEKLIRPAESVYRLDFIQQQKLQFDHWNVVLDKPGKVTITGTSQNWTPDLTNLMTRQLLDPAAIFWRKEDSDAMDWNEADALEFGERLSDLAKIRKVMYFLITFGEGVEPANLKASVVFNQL

[2] = target: T1, Olfactory marker protein (OMP); assay: BRET competition against […] 8NBD-cAMP (U-shaped)
[3] = target: T1, Olfactory marker protein (OMP); assay: direct BRET binding, Rluc-OMP to fluorescent TNP-ATP, Rluc-alone background subtracted

- concentration at peak BRET signal [1]: 1 to 3 µM
SMILES: Nc1ncnc2c1ncn2[C@@H]1O[C@H](COP(=O)(O)OP(=O)(O)O)[C@@H](O)[C@H]1O [ADP]

SMILES: Nc1ncnc2c1ncn2[C@@H]1O[C@H](COP(=O)(O)OP(=O)(O)OP(=O)(O)O)[C@@H](O)[C@H]1O [ATP]
- EC50 [2]: 1 ± 0.15 µM

SMILES: Nc1ncnc2c1ncn2[C@@H]1O[C@H](COP(=O)(O)OP(=O)(O)OP(=O)(O)O)[C@H]2OC3(O[C@H]21)C([N+](=O)[O-])=CC(=[N+]([O-])[O-])C=C3[N+](=O)[O-] (stereo partly drawn) [TNP-ATP]
- EC50 [3]: 13 ± 1.5 µM
